Like-named read-outs stand apart in the source and are kept apart here. One block for each compound: values may come before it.
Assays:
hENT1 (SLC29A1) = molecular target: T1, hENT1 (SLC29A1) (Homo sapiens, UniProt Q99808); test: Inhibition of [^3H]uridine uptake in yeast cells producing recombinant hENT1; format: cell-based; settings: inhibition of 1 µmol/L [^3H]uridine transport, yeast, 0–3 mM test compound, mean ± SE, n = 2–3; NI = no interaction
T1 construct: expressed in transfected cells; host or cells: Saccharomyces cerevisiae
T1 sequence (Q99808 1-456): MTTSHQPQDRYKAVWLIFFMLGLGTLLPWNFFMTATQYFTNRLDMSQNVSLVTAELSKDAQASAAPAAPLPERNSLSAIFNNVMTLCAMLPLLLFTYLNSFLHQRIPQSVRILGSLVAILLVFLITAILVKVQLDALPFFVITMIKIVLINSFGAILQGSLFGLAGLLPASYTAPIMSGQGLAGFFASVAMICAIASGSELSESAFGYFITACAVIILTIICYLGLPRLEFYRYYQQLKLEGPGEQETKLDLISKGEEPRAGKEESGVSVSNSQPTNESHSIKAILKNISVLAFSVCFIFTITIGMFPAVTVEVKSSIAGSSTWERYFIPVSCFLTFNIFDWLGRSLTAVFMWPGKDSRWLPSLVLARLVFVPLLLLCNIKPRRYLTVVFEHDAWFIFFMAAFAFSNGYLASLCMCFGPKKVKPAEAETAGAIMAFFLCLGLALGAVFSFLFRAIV
Description: (§1) The interaction of 2-nitroimidazole sugars with nucleoside transporters was determined by ability of the 2-nitroimidazole sugars to inhibit [^3H]uridine uptake in yeast cells producing recombinant human nucleoside transporters and results expressed as IC50 values.
(§2) Saccharomyces cerevisiae yeast was separately transformed with plasmids (pYPhENT1, pYPhENT2, pYPhCNT1, pYPhCNT2, or pYPhCNT3) encoding hNTs (hENT1, hENT2, hCNT1, hCNT2, or hCNT3, respectively) as described elsewhere. Uptake of 1 µmol/L [^3H]uridine (Moravek Biochemicals) into yeast was measured as previously described using a semi-automated cell harvester (Micro96 HARVESTER; Skatron Instruments, Tranby, Norway). Yeast was incubated at room temperature with 1 µmol/L [^3H]uridine in yeast growth media (pH 7.4) in the presence or absence (uninhibited controls) of graded concentrations (0–3 mM) of test compounds. The following compounds were used for transporter experiments: FAZA, β-FAZA, α-FAZDR, β-FAZDR. Uridine self-inhibition was used to determine maximum inhibition of mediated transport. Concentration–effect curves were subjected to nonlinear regression analysis using Prism software (version 4.03; GraphPad Software Inc.) to obtain the concentration of test compound that inhibited uridine uptake by 50%, relative to that of untreated cells (IC50 values). Each IC50 value determination was conducted with nine concentrations and four replicates per concentration and experiments were repeated two to three times.

hCNT1 (SLC28A1) = molecular target: T2, hCNT1 (SLC28A1) (Homo sapiens, UniProt O00337); test: Inhibition of [^3H]uridine uptake in yeast cells producing recombinant hCNT1; format: cell-based
T2 construct: expressed in transfected cells; host or cells: Saccharomyces cerevisiae
T2 sequence (O00337 1-649): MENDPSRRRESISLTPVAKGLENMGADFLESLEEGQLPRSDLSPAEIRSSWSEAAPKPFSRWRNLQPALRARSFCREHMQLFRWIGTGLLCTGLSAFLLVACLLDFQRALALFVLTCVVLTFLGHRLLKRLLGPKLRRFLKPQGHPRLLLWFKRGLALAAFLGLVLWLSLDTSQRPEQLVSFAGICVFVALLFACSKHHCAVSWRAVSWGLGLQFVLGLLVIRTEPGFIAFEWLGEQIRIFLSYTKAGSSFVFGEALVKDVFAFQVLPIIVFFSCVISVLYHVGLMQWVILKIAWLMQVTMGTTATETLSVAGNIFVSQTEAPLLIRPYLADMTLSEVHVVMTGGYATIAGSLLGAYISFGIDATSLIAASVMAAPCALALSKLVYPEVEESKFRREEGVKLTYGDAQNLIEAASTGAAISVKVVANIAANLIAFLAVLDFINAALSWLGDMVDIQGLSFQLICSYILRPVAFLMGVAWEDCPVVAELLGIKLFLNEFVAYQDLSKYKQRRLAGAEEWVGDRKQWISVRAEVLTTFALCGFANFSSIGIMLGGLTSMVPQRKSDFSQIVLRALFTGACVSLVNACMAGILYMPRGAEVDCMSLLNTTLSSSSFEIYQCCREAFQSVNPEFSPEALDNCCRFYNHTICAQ
Description: as §1, §2

hENT2 (SLC29A2) = molecular target: T3, hENT2 (SLC29A2) (Homo sapiens, UniProt Q14542); test: Inhibition of [^3H]uridine uptake in yeast cells producing recombinant hENT2; format: cell-based; settings: inhibition of 1 µmol/L [^3H]uridine transport, yeast, 0–3 mM test compound, mean ± SE, n = 2–3; NI = no interaction
T3 construct: expressed in transfected cells; host or cells: Saccharomyces cerevisiae
T3 sequence (Q14542 1-456): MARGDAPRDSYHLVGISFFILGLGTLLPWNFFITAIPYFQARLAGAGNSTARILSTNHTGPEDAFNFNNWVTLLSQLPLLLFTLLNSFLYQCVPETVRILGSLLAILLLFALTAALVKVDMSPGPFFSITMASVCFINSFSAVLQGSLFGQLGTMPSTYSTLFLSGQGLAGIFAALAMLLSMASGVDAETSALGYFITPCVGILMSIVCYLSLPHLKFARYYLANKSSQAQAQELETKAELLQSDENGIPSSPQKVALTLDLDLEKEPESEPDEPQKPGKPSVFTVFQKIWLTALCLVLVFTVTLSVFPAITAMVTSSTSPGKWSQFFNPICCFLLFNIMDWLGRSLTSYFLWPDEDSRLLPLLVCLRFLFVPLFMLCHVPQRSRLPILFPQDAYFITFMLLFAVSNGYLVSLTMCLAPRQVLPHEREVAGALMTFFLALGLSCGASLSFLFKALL
Description: as §1, §2

hCNT2 (SLC28A2) = molecular target: T4, hCNT2 (SLC28A2) (Homo sapiens, UniProt O43868); test: Inhibition of [^3H]uridine uptake in yeast cells producing recombinant hCNT2; format: cell-based
T4 construct: expressed in transfected cells; host or cells: Saccharomyces cerevisiae
T4 sequence (O43868 1-658): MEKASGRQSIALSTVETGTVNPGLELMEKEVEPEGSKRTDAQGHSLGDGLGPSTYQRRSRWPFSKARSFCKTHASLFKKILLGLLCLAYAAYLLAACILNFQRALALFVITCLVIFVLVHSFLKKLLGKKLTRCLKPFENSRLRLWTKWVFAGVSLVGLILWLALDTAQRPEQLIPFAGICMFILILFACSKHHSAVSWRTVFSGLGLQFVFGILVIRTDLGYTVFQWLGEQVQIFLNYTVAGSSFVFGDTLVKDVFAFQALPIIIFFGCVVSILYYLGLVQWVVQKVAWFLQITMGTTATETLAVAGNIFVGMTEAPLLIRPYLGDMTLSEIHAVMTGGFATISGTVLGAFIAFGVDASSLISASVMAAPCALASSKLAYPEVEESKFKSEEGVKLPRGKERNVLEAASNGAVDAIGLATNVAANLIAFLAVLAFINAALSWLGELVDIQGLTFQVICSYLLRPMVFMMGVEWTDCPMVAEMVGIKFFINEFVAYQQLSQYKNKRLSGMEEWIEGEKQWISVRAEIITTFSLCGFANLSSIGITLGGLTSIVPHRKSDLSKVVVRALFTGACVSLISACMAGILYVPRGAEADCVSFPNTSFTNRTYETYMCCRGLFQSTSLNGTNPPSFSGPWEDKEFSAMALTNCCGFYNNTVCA
Description: as §1, §2

hCNT3 (SLC28A3) = molecular target: T5, hCNT3 (SLC28A3) (Homo sapiens, UniProt Q9HAS3); test: Inhibition of [^3H]uridine uptake in yeast cells producing recombinant hCNT3; format: cell-based
T5 construct: expressed in transfected cells; host or cells: Saccharomyces cerevisiae
T5 sequence (Q9HAS3 1-691): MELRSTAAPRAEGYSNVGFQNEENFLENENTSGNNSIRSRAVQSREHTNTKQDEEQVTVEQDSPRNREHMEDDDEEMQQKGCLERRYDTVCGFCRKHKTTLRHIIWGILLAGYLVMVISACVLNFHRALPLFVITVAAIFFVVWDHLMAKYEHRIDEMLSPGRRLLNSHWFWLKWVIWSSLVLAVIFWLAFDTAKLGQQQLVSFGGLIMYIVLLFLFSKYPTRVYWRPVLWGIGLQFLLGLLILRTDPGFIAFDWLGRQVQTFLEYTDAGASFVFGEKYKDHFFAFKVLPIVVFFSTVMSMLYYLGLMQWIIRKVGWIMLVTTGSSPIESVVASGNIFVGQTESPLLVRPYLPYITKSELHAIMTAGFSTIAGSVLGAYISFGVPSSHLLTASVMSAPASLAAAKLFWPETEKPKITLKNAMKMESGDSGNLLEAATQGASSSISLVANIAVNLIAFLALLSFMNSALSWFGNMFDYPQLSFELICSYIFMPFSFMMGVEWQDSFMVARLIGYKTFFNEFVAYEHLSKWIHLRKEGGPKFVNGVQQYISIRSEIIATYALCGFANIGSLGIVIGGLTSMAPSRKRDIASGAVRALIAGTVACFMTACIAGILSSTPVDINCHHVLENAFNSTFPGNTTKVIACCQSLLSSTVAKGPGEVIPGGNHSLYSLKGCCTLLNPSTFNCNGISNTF
Description: as §1, §2

CT26 colon carcinoma = test: PET hypoxia imaging of CT26 colon carcinoma bearing mice; format: in vivo, BALB/c mice
Description: The above-described CT26 mouse colon carcinoma cells were subcutaneously inoculated in the right shoulder of female BALB/c mice (1 × 10^6 cells in phosphate-buffered saline, PBS). Subsequently, the carcinomas were allowed to grow for a period of 13 days, reaching approximately 0.3 cm3. […] All animal experiments were conducted according to guidelines for the use and care of laboratory research animals under the German Animal Protection Law, and approved by local authorities (Regierungspräsidium Tübingen). […] All experiments were done using medical air as carrier gas for isoflurane anesthesia (1.5% isoflurane during PET scans, flow rate 0.4 L/min), including tracer injections, with a specialized vaporizer ([…], Louisville, KY, USA). Subsequent to the tracer injections, the animals were allowed to freely move in their home cages for an uptake period of 55 min, thus, breathing room air. […] PET scans were performed with a Siemens Inveon dedicated PET (DPET, Siemens Healthcare, Knoxville, TN, USA). PET scans were then reconstructed with a two-dimensional ordered subset expectation maximization algorithm (OSEM2D with 16 subsets and 4 iterations). Image zoom was set to 1 and matrix size to 128 × 128 yielding a final PET image spatial resolution of 0.79 × 0.79 × 0.80 mm3. PET data were manually corrected for radioactive decay of ^18F. PET image analysis was performed using the PMOD 3.2_base 64 image viewing tool (PMOD Technologies, Zürich, Switzerland). […] Finally, PET data were expressed as percent injected dose per cubic-centimeter (%ID/cc) or tumor-to-muscle ratio (TMR).

[1] = inhibition of 1 µmol/L [^3H]uridine transport, yeast, 0–3 mM test compound, mean ± SE, n = 2–3, NI = no interaction

IC50 (hENT1 (SLC29A1)): > 3 mM
IC50 hENT1 (SLC29A1) (hENT1 (SLC29A1)): no interaction
IC50 (hCNT1 (SLC28A1)): 0.29 ± 0.044 mM
IC50 (hENT2 (SLC29A2)): > 3 mM
IC50 hENT2 (SLC29A2) (hENT2 (SLC29A2)): no interaction
IC50 (hCNT2 (SLC28A2)): 0.64 ± 0.01 mM
IC50 (hCNT3 (SLC28A3)): 1.38 ± 0.1 mM
Compound: O=[N+]([O-])c1nccn1[C@H]1O[C@H](CF)[C@@H](O)[C@@H]1O [FAZA, 1-(5′-deoxy-5′-fluoro-α-D-arabinofuranosyl)-2-nitroimidazole]

Compound: O=[N+]([O-])c1nccn1CC(O)C[18F] (stereo not shown) [[^18F]FMISO, reference compound]
tumor uptake (CT26 colon carcinoma; 1 h p.i., hypoxic CT26 tumor tissue, PET): 2.49 ± 0.88 %ID/cc
tumor-to-muscle ratio (TMR) (CT26 colon carcinoma; 1 h p.i., i.v., CT26 tumor vs. shoulder muscle, mean ± SD): 1.37 ± 0.11
muscle uptake (CT26 colon carcinoma; 1 h p.i., normoxic muscle tissue, PET): 1.81 ± 0.58 %ID/cc
muscle clearance (CT26 colon carcinoma; 2 h p.i. relative to 1 h p.i.): 37.2 ± 4.3%
tumor clearance (CT26 colon carcinoma; 2 h p.i. relative to 1 h p.i.): 11.8 ± 6.5%
clearance ratio for tumor relative to muscle tissue (CT26 colon carcinoma; 3 h p.i.): 0.45 ± 0.17
muscle clearance (CT26 colon carcinoma; 3 h p.i. relative to 1 h p.i.): 58.6 ± 3.3%
tumor clearance (CT26 colon carcinoma; 3 h p.i. relative to 1 h p.i.): 26.9 ± 10.1%

IC50 (hENT1 (SLC29A1)): > 3 mM
IC50 hENT1 (SLC29A1) (hENT1 (SLC29A1)): no interaction
IC50 (hCNT1 (SLC28A1); [1]): > 3 mM
IC50 hCNT1 (SLC28A1) (hCNT1 (SLC28A1); [1]): no interaction
IC50 (hENT2 (SLC29A2)): > 3 mM
IC50 hENT2 (SLC29A2) (hENT2 (SLC29A2)): no interaction
IC50 (hCNT2 (SLC28A2); [1]): > 3 mM
IC50 hCNT2 (SLC28A2) (hCNT2 (SLC28A2); [1]): no interaction
IC50 (hCNT3 (SLC28A3); [1]): > 3 mM
IC50 hCNT3 (SLC28A3) (hCNT3 (SLC28A3); [1]): no interaction
Compound: O=[N+]([O-])c1nccn1C1CC(O)C(CF)O1 (stereo not drawn) [α-FAZDR]

— paper PMC6469291, “2-Nitroimidazole-Furanoside Derivatives for Hypoxia Imaging—Investigation of Nucleoside Transporter Interaction, ^18F-Labeling and Preclinical PET Imaging” (Pharmaceuticals, 2019)
